In patent US9725449B2, “Tricyclic compounds as anticancer agents” (BRISTOL-MYERS SQUIBB COMPANY, priority 2015, dated 2017):

These compounds were tested against BRD4 (Homo sapiens, UniProt O60885) (assay: Time resolved fluorescence resonance energy transfer (TR-FRET) binding assay, bromodomain BRD4). Details: one of the FRET assays described; read-out: FRET BRD4 IC50.
For `[2H]C([2H])([2H])c1nnn(C)c1-c1cnc2c3cnc(-c4c(C([2H])([2H])[2H])nnn4C)cc3n([C@H](c3ccc(F)cc3)C3CCOCC3)c2c1` [Example 160, 8-[(S)-(4-Fluorophenyl)(oxan-4-yl)methyl]-5,11-bis[4-(^2H3)methyl-1-methyl-1H-1,2,3-triazol-5-yl]-3,8,12-triazatricyclo[7.4.0.0^2,^7]trideca-1(13),2(7),3,5,9,11-hexaene], the IC50 was less than 10 nM. `C=C(C)c1ccc2c3ncc(-c4c(C)nnn4C)cc3n([C@H](c3ccccc3)C3CCOCC3)c2n1` [Example 161, 5-(Dimethyl-1H-1,2,3-triazol-5-yl)-8-[(S)-oxan-4-yl(phenyl)methyl]-11-(prop-1-en-2-yl)-3,8,10-triazatricyclo[7.4.0.0^2,^7]trideca-1(9),2(7),3,5,10,12-hexaene] showed an IC50 of less than 10 nM. For `CC(=O)c1ccc(-c2ccc3c4ncc(-c5c(C)nnn5C)cc4n([C@H](c4ccccc4)C4CCOCC4)c3n2)s1` [Example 162, 1-{5-[5-(Dimethyl-1H-1,2,3-triazol-5-yl)-8-[(S)-oxan-4-yl(phenyl)methyl]-3,8,10-triazatricyclo[7.4.0.0^2,^7]trideca-1(9),2(7),3,5,10,12-hexaen-11-yl]thiophen-2-yl}ethan-1-one], the IC50 was less than 10 nM. For `Cc1nnn(C)c1-c1cnc2c3ccc(-c4c(C)nnn4C)nc3n([C@H](c3ccccc3)C3CCOCC3)c2c1` [Example 163, 5,11-Bis(dimethyl-1H-1,2,3-triazol-5-yl)-8-[(S)-oxan-4-yl(phenyl)methyl]-3,8,10-triazatricyclo[7.4.0.0^2,^7]trideca-1(9),2(7),3,5,10,12-hexaene], the IC50 was less than 1 nM. For `Cc1nnn(C)c1-c1cnc2c3ccc(-c4c(C)nnn4C)nc3n([C@@H](c3ccccc3)C3CCOCC3)c2c1` [Example 164, 5,11-Bis(dimethyl-1H-1,2,3-triazol-5-yl)-8-[(R)-oxan-4-yl(phenyl)methyl]-3,8,10-triazatricyclo[7.4.0.0^2,^7]trideca-1(9),2(7),3,5,10,12-hexaene], the IC50 was less than 10 nM. `[2H]C([2H])([2H])c1nnn(C)c1-c1cnc2c3ccc(-c4c(C([2H])([2H])[2H])nnn4C)nc3n([C@@H](c3ccccc3)C3CCOCC3)c2c1` [Example 165, 5,11-Bis[4-(^2H3)methyl-1-methyl-1H-1,2,3-triazol-5-yl]-8-[(R)-oxan-4-yl(phenyl)methyl]-3,8,10-triazatricyclo[7.4.0.0^2,^7]trideca-1(9),2(7),3,5,10,12-hexaene] showed an IC50 of less than 10 nM. With `COc1nnn(C)c1-c1cnc2c3ccc(-c4c(OC)nnn4C)nc3n([C@H](c3ccccc3)C3CCOCC3)c2c1` [Example 166, 5,11-Bis(4-methoxy-1-methyl-1H-1,2,3-triazol-5-yl)-8-[(S)-oxan-4-yl(phenyl)methyl]-3,8,10-triazatricyclo[7.4.0.0^2,^7]trideca-1(9),2(7),3,5,10,12-hexaene] the IC50 was less than 10 nM. `COc1nnn(C)c1-c1cnc2c3ccc(Cl)nc3n([C@H](c3ccccc3)C3CCOCC3)c2c1` [Example 167, 11-Chloro-5-(4-methoxy-1-methyl-1H-1,2,3-triazol-5-yl)-8-[(S)-oxan-4-yl(phenyl)methyl]-3,8,10-triazatricyclo[7.4.0.0^2,^7]trideca-1(9),2(7),3,5,10,12-hexaene] was tested, and the IC50 was less than 1500 nM. Work on `[2H]C([2H])([2H])c1nnn(C)c1-c1cnc2c3cnc(-c4c(C([2H])([2H])[2H])nnn4C)cc3n([C@H](c3ccccc3)C3CCOCC3)c2c1` [Example 168, 5,11-Bis[4-(^2H3)methyl-1-methyl-1H-1,2,3-triazol-5-yl]-8-[(S)-oxan-4-yl(phenyl)methyl]-3,8,12-triazatricyclo[7.4.0.0^2,^7]trideca-1(9),2(7),3,5,10,12-hexaene] yielded an IC50 of less than 1 nM. In the case of `Cc1nnn(C)c1-c1cnc2c3ccc(C#N)nc3n([C@H](c3ccccc3)C3CCOCC3)c2c1` [Example 169, 5-(Dimethyl-1H-1,2,3-triazol-5-yl)-8-[(S)-oxan-4-yl(phenyl)methyl]-3,8,10-triazatricyclo[7.4.0.0^2,^7]trideca-1(9),2(7),3,5,10,12-hexaene-11-carbonitrile], the IC50 is reported as less than 10 nM. For `C=C(OCC)c1ccc2c3ncc(-c4c(C)nnn4C)cc3n([C@H](c3ccccc3)C3CCOCC3)c2n1` [Example 170, 5-(Dimethyl-1H-1,2,3-triazol-5-yl)-1-(1-ethoxyethenyl)-8-[(S)-oxan-4-yl(phenyl)methyl]-3,8,10-triazatricyclo[7.4.0.0^2,^7]trideca-1(9),2(7),3,5,10,12-hexaene], the IC50 was less than 10 nM. `CC(=O)c1ccc2c3ncc(-c4c(C)nnn4C)cc3n([C@H](c3ccccc3)C3CCOCC3)c2n1` [Example 171, 1-[5-(Dimethyl-1H-1,2,3-triazol-5-yl)-8-[(S)-oxan-4-yl(phenyl)methyl]-3,8,10-triazatricyclo[7.4.0.0^2,^7]trideca-1(9),2(7),3,5,10,12-hexaen-11-yl]ethan-1-one] was tested, and the IC50 was less than 10 nM. Compound `[2H]C(C)(O)c1ccc2c3ncc(-c4c(C)nnn4C)cc3n([C@H](c3ccccc3)C3CCOCC3)c2n1` (stereo partly drawn) [Example 172, 1-[5-(Dimethyl-1H-1,2,3-triazol-5-yl)-8-[(S)-oxan-4-yl(phenyl)methyl]-3,8,10-triazatricyclo[7.4.0.0^2,^7]trideca-1(9),2(7),3,5,10,12-hexaen-11-yl](1-^2H)ethan-1-ol] has an IC50 of less than 10 nM. For `Cc1nnn(C)c1-c1cnc2c3ccc(C(C)O)nc3n([C@H](c3ccccc3)C3CCOCC3)c2c1` (stereo partly drawn) [Example 173, 1-[5-(Dimethyl-1H-1,2,3-triazol-5-yl)-8-[(S)-oxan-4-yl(phenyl)methyl]-3,8,10-triazatricyclo[7.4.0.0^2,^7]trideca-1(9),2(7),3,5,10,12-hexaen-11-yl]ethan-1-ol], the IC50 was less than 10 nM. `Cc1nnn(C)c1-c1cnc2c3ccc(C(C)(C)O)nc3n([C@H](c3ccccc3)C3CCOCC3)c2c1` [Example 174, 2-[5-(Dimethyl-1H-1,2,3-triazol-5-yl)-8-[(S)-oxan-4-yl(phenyl)methyl]-3,8,10-triazatricyclo[7.4.0.0^2,^7]trideca-1(9),2(7),3,5,10,12-hexaen-11-yl]propan-2-ol] showed an IC50 of less than 1 nM. For `[2H]C([2H])([2H])c1nnn(C)c1-c1cnc2c3ccc(C(C)(C)O)nc3n([C@H](c3ccccc3)C3CCOCC3)c2c1` [Example 175, 2-{5-[4-(^2H3)Methyl-1-methyl-1H-1,2,3-triazol-5-yl]-8-[(S)-oxan-4-yl(phenyl)methyl]-3,8,10-triazatricyclo[7.4.0.0^2,^7]trideca-1(9),2(7),3,5,10,12-hexaen-11-yl}propan-2-ol], the IC50 was less than 10 nM. `[2H]C([2H])([2H])c1nnn(C)c1-c1cnc2c3ccc(-c4ccc(C(C)(C)O)s4)nc3n([C@H](c3ccccc3)C3CCOCC3)c2c1` [Example 176, 2-(5-{5-[4-(^2H3)Methyl-1-methyl-1H-1,2,3-triazol-5-yl]-8-[(S)-oxan-4-yl(phenyl)methyl]-3,8,10-triazatricyclo[7.4.0.0^2,^7]trideca-1(9),2(7),3,5,10,12-hexaen-11-yl}thiophen-2-yl)propan-2-ol] gave an IC50 of less than 10 nM. `[2H]C([2H])([2H])C(C)(O)c1ccc2c3ncc(-c4c(C)nnn4C)cc3n([C@H](c3ccccc3)C3CCOCC3)c2n1` (stereo partly drawn) [Example 177, 2-[5-(Dimethyl-1H-1,2,3-triazol-5-yl)-8-[(S)-oxan-4-yl(phenyl)methyl]-3,8,10-triazatricyclo[7.4.0.0^2,^7]trideca-1(9),2(7),3,5,10,12-hexaen-11-yl](1,1,1-^2H3)propan-2-ol] gave an IC50 of less than 1 nM.
